Measurements from patent US7214668B2, “Phosphonic acid based prodrugs of PMEA and its analogues” (Metabasis Therapeutics, Inc., priority 2002, dated 2007).

Key:
human liver microsomes = assay: In vitro activation of enantiomers in human liver microsomes (glutathione by-product capture); type: in vitro ADME; conditions: 2 mg/mL human liver microsomes, glutathione adduct of by-product quantified
Protocol: The two enantiomers were compared for activation in human liver microsomes.
Human liver microsomes were purchased from In Vitro Technologies (IVT1032). […] The reactions were initiated by addition of NADPH following a 2-minute preincubation. Reactions were quenched with 60% methanol at 0, 2.5, 5, and 7.5 minutes. L-Glutamyl-L-(S-(3-oxo-3-(3-chlorophenyl)propyl)cysteinylglycine, a glutathione adduct of the by-product of prodrug activation, 3-Cl-phenyl vinyl ketone, was quantified following extraction of the reaction with 1.5 volumes of methanol. The extracted samples were centrifuged at 14,000 rpm in an Eppendorf microfuge and the supernatant analyzed by HPLC for L-Glutamyl-L-(S-(3-oxo-3-(3-chlorophenyl)propyl)cysteinylglycine content. Spiked L-Glutamyl-L-(S-(3-oxo-3-(3-chlorophenyl)propyl)cysteinylglycine (lot 20000127) standards (1–30 μM) were prepared in 2 mg/ml microsomes under reaction conditions and then quenched and processed in an identical fashion to unknown samples. For HPLC analysis, the loading mobile phase buffer (Buffer A) consisted of a 9:1 ratio (v/v) of 20 mM potassium phosphate, pH 6.2 and acetonitrile. Extract (100 uL) was injected onto a Beckman Ultrasphere ODS column (4.6×250 […], part#235329). […] The elution of L-Glutamyl-L-(S-(3-oxo-3-(3-chlorophenyl)propyl)cysteinylglycine (retention time 10.4 minutes) was monitored at 245 nm.

[1] = Protocol: Intact prodrug and the metabolite 9-[2-(phosophonomethoxy)ethyl]adenine (PMEA) and the respective mono-acids were measured in the plasma at 0 (predose), 0.33, 1, 3, 5, 8, and 12 hrs post dose by HPLC using fluorescence detection. The pharmacokinetic parameters were calculated based on noncompartmental analysis of the concentration-time profile.
[2] = system: liver microsomes isolated from rats induced with dexamethasone; assay: In vitro activation of PMEA prodrug analogues to PMEA by rat liver microsomes; conditions: 1 mg/mL microsomes, 2 mM NADPH, 5 minutes, 37° C., PMEA formation
Protocol: PMEA prodrug analogues were tested for activation to PMEA in reactions catalyzed by the microsomal fraction of rat liver.
Prodrugs (25 and 250 μM) were tested for activation by liver microsomes isolated from rats induced with dexamethasone to enhance CYP3A4 activity (Human Biologics Inc., Phoenix Ariz.). Reactions were conducted in 0.1 M KH2PO4, pH 7.4, in the presence of 2 mM NADPH and liver microsomes (1 mg/mL). Reaction mixtures were incubated for 5 minutes in an Eppendorf Thermomixer 5436 (37° C., speed 6). Reactions were terminated by the addition of 1.5 volumes of methanol. The resulting extracts were clarified by centrifugation at 14,000 rpm in an Eppendorf microfuge (20 minutes). The supernatants (200 μL) were evaporated under vacuum and heat to dryness before resuspending in 80 μL of buffer A (see below) for PMEA analysis. Spiked standards of 9-[2-(phosophonomethoxy)ethyl]adenine, (PMEA, lot 980397, Metabasis Therapeutics) were prepared in the same reaction mixture and processed in an identical fashion. After resuspension, samples were analyzed by reverse phase HPLC (Altima C-18 column) with use of an ion-pairing buffer (Buffer A) consisting of 10 mM ammonium phosphate, 2.5 mM octyltriethylammonium phosphate, pH 5.5. Samples were loaded in Buffer A and eluted with a methanol gradient from 40% to 80% over 20 minutes. Detection was at 265 nm.

Nc1ncnc2c1ncn2CCOCP1(=O)OCCC(c2cccc(Cl)c2)O1 (racemic) [Compound 4]
Activation (25 μM) (human liver microsomes; 25 μM): 38 pmol/mg/min
Activation (250 μM) (human liver microsomes; 250 μM): 283 pmol/mg/min
Plasma half-life of breakdown product 9-{2-[1-{(3-chlorophenyl)-1-propyl-3-hydroxy}phosphonomethoxy]ethyl}adenine ([1]; after 30 mg/kg PMEA equivalents p.o. of prodrug, rats): ~2.1 h
Intact prodrug in plasma ([1]; rat, in vivo): observed in plasma
Activation Rate, Dex. Rat Liver Microsomes, 25 μM ([2]; 25 μM prodrug): 6.2 nmol/min/mg
Activation Rate, Dex. Rat Liver Microsomes, 250 μM ([2]; 250 μM prodrug): 10.9 nmol/min/mg
